Data on 19 compounds can be found in patent publication US20250101023A1, “HETEROARYL DERIVATIVE AND USES THEREOF” (IUCF-HYU (INDUSTRY-UNIVERSITY COOPERATION FOUNDATION …, priority 2022, published 2025).

Molecules are shown by their SMILES. Where two headings read alike, the source gives them in different places.

Data set [1] has as its system Pol II CTD (Ser2) phosphorylation. The experiment in a line: Western blot, Pol II CTD Ser2 phosphorylation. It counts as cell-based. The following applies: SK-Br3 cell line, 0.2 and 1 μM, 2 hours.
The test system of the next data set is cyclinK. The data set can be described thus: Western blot, cyclinK degradation. The format is cell-based. The following applies: SK-Br3 cell line, 0.2 and 1 μM, 2 hours. (Immunoblotting shows a protein as a band on a membrane.)
Another data set deals with HCC1954 cells. The experiment in a line: Breast cancer growth inhibitory activity (Cell-titer Glo, 72 h). The format is cell-based. The following applies: Homo sapiens. How it is done: (§1) Breast cancer cells in a culture solution (100 μL volume/well, 2,500 SK-Br3 cells/well, 1,000 HCC-1954 cells/well) were seeded into a tissue culture-treated 96-well plate and cultured in a cell incubator for 24 hours. […] Cell-titer Glo™ reagent (50 μL of a 5-fold diluted solution, Promega) was added to each well, and luminescence signals were measured using an Envision™ plate reader (PerkinElmer, USA). Titration curve fitting and IC50 values were generated using Prism 7.0 s/w (GraphPad, San Diego, USA).

Another data set has as its target CDK12/CyclinK (Homo sapiens (Human), UniProt Q9NYV4). The experiment in a line: CDK12/cyclinK enzyme activity. It counts as biochemical. The note with it: in vitro.
The subject of a further data set is SK-Br3 cells. The experiment in a line: Breast cancer growth inhibitory activity (Cell-titer Glo, 72 h). The format is cell-based. The following applies: Homo sapiens, SK-BR-3. How it is done:
as §1

A further data set addresses CYP3A4 (Homo sapiens (Human), UniProt P08684). The data set can be described thus: CYP inhibitory activity. The following applies: read-out: CYP % activity at 10 μM concentration 3A4. The format is in vitro ADME. The procedure: (§2) 5 derivatives were evaluated for in vitro metabolic stability in liver microsomes from three different species (human, dog, mouse) and for inhibitory activity against 5 representative cytochrome P450 enzymes (CYPs)(Table 3). In terms of liver microsomal stability, the 2′-pyridyl group is more suitable than the α-methyl-4′-pyridyl group as the terminal aromatic group at position 6, and the aminopyrimidyl group is better than the aminopyridyl group as a substituent at position 2.

For a further data set, the target named is CYP2D6 (Homo sapiens (Human), UniProt P10635). The experiment in a line: CYP inhibitory activity. It counts as in vitro ADME. The following applies: read-out: CYP % activity at 10 μM concentration 2D6. How it is done:
as §2

The target in another data set is CYP2C9 (Homo sapiens (Human), UniProt P11712). The data set can be described thus: CYP inhibitory activity. The format is in vitro ADME. The note with it: read-out: CYP % activity at 10 μM concentration 2C9. The procedure: as §2
Chain of CYP2C9 (P11712 whole entry): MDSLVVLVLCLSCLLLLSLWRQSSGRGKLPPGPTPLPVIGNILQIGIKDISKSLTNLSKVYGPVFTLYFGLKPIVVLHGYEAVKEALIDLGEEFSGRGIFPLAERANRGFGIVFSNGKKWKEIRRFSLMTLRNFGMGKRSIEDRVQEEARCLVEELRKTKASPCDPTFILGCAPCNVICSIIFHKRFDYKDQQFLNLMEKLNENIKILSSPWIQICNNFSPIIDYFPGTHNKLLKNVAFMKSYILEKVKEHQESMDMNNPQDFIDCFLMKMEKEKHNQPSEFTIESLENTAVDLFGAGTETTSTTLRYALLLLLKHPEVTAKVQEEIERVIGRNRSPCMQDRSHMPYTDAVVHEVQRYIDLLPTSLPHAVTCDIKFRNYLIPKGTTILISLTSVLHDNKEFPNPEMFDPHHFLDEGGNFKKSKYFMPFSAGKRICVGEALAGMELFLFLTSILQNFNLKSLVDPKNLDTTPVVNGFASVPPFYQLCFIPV
The target in the next data set is CYP2C19 (Homo sapiens (Human), UniProt P33261). The data set can be described thus: CYP inhibitory activity. It counts as in vitro ADME. The note with it: read-out: CYP % activity at 10 μM concentration 2C19. The procedure: as §2
Chain of CYP2C19 (P33261 whole entry): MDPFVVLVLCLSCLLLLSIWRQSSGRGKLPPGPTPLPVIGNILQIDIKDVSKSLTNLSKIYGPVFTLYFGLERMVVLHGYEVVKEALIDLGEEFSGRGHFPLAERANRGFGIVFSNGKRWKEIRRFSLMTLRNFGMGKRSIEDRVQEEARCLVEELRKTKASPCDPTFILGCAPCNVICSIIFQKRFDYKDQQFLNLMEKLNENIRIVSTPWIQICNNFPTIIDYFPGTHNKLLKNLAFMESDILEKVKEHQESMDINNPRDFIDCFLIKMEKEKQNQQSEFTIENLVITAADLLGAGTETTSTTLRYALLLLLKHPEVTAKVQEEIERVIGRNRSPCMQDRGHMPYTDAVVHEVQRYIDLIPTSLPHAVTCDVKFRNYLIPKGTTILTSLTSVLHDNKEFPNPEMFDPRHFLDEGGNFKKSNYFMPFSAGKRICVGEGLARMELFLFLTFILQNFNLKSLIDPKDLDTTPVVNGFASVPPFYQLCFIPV
Another data set deals with CYP1A2 (Homo sapiens (Human), UniProt P05177). The data set can be described thus: in vitro. The format is in vitro ADME. How it is done:
as §2

A short description of data set [2]: Liver microsomal metabolic stability. The following applies: for Liver microsomal metabolic stability (% remaining amount) Dog: dog liver microsomes; for Liver microsomal metabolic stability (% remaining amount) Human: human liver microsomes; for Liver microsomal metabolic stability (% remaining amount) Mouse: mouse liver microsomes. The format is in vitro ADME. How it is done:
as §2
In general terms: Liver microsomes are vesicles of endoplasmic reticulum, rich in cytochrome P450 enzymes.

The mark [3] stands for this setting: 72 hours, read-out: HCC1954 (GI50/μM).
Setting [4] is: 72 hours, read-out: SK-Br3 (GI50/μM).

Chain of CDK12/CyclinK (Q9NYV4 whole entry): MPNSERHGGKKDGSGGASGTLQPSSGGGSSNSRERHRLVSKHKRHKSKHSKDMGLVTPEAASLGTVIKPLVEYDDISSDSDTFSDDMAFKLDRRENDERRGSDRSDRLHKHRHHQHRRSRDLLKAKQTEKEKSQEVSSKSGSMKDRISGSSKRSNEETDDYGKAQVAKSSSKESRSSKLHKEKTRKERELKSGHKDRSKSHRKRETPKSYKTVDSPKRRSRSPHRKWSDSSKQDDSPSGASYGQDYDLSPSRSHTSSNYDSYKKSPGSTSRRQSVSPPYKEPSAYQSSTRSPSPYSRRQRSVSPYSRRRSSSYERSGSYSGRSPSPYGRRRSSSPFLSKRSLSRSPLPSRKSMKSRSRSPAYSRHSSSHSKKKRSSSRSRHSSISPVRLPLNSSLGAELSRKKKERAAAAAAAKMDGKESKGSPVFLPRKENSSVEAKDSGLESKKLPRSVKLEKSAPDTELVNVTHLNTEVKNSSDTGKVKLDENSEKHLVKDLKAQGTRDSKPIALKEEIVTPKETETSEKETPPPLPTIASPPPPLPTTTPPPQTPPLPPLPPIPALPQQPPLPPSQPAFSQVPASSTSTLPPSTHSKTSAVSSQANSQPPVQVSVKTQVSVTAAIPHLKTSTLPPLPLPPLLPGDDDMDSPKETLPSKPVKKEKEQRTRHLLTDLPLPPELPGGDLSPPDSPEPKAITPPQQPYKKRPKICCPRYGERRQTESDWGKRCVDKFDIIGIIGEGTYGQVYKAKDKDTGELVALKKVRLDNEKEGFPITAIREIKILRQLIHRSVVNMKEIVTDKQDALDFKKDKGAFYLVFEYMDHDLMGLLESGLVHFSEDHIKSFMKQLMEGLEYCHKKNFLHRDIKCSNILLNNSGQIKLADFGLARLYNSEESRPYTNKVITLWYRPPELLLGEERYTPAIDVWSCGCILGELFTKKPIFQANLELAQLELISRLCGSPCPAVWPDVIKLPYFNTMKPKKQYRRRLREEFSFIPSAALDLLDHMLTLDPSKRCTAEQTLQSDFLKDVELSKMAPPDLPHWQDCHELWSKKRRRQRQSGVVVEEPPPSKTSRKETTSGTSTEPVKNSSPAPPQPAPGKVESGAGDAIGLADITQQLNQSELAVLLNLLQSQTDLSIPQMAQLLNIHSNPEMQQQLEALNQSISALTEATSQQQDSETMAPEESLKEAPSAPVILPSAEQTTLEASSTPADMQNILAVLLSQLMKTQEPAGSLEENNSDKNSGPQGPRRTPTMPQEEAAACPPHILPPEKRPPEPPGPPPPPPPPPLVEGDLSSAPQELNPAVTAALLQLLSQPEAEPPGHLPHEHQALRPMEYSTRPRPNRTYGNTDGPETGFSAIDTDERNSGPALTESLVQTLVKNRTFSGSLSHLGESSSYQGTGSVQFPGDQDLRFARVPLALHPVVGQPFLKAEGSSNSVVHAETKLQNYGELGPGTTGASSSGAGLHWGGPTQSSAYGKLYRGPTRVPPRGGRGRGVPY
Chain of CDK12/CyclinK (O75909 whole entry partner): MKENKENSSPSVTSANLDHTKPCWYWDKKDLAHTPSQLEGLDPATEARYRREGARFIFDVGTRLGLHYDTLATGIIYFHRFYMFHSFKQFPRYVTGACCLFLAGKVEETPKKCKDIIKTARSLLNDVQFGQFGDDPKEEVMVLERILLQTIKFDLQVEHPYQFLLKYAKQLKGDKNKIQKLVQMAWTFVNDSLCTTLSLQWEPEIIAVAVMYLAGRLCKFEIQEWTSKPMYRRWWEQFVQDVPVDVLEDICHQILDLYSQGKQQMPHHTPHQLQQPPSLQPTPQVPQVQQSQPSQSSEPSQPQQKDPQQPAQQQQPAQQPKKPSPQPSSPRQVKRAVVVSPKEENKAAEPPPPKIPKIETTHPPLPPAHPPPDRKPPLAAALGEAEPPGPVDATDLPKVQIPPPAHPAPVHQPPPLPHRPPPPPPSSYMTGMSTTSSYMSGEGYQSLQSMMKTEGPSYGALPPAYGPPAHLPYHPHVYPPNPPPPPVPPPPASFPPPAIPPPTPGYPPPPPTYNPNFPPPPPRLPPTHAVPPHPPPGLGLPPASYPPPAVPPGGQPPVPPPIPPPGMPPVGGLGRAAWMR
Chain of CYP1A2 (P05177 whole entry): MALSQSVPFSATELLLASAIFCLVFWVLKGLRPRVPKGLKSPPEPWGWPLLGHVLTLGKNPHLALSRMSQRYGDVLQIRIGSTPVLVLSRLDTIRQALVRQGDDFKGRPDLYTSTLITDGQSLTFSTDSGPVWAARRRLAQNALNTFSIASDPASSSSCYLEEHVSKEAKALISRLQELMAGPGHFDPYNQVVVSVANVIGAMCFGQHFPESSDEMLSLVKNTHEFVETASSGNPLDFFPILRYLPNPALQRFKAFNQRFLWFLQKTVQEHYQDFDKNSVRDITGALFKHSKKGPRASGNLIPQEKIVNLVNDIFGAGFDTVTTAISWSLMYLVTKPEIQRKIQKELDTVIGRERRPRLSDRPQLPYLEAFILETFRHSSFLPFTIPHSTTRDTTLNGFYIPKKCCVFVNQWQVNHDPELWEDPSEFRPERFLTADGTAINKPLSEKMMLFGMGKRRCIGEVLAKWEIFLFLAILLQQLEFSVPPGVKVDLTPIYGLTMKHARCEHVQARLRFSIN
Chain of CYP2D6 (P10635 whole entry): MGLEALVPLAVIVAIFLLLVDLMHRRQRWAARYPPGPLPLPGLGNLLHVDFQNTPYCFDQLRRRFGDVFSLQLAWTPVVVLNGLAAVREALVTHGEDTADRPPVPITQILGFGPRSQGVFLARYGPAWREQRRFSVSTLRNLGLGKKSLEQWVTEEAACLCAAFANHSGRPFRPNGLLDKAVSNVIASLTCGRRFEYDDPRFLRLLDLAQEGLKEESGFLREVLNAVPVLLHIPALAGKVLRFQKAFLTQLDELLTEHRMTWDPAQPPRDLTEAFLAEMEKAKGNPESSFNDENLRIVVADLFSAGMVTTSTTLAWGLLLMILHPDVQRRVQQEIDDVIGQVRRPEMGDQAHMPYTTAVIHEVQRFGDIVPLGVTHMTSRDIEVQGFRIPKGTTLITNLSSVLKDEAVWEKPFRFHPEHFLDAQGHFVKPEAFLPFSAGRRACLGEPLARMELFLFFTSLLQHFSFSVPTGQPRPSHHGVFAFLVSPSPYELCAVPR
Chain of CYP3A4 (P08684 whole entry): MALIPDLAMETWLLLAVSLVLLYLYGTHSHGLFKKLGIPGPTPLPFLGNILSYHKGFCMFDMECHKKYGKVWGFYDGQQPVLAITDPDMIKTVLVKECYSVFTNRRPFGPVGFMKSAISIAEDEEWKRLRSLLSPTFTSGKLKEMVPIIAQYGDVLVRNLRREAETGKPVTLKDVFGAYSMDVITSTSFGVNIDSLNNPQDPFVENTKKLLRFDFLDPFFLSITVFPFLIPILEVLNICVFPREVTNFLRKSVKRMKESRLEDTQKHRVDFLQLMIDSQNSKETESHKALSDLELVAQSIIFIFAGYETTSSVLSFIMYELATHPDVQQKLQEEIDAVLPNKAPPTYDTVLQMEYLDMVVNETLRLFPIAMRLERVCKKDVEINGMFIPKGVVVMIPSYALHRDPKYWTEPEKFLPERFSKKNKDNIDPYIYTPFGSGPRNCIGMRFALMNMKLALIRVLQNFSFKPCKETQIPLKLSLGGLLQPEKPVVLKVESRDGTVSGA

For orientation: IC50 means the concentration needed to halve the response being measured. For the compound `CC(C)n1cnc2c(NCc3ccc(-c4ccccn4)cn3)nc(-c3cccnc3)nc21` [Example 1, N-([2,3′-bipyridin]-6′-ylmethyl)-9-isopropyl-2-(pyridin-3-yl)-9H-purin-6-amine], the “Pol II CTD (Ser2) phosphorylation” value in [1] was “inhibited Pol II CTD (Ser2) phosphorylation in a dose-dependent manner”. Also, in the data set with cyclinK, the cyclinK degradation entry is listed as “induced the degradation of cyclinK”. In addition, the GI50 in the data set with HCC1954 cells (setting [3]) was 0.105 µM. In addition, the IC50 against CDK12/CyclinK amounted to 0.433 µM.
For `CC(C)n1cnc2c(NCc3ccc(-c4cccnc4)cn3)nc(-c3cccnc3)nc21` [Example 2, N-([3,3′-bipyridin]-6-ylmethyl)-9-isopropyl-2-(pyridin-3-yl)-9H-purin-6-amine], in [1], the “Pol II CTD (Ser2) phosphorylation” value is listed as “inhibited Pol II CTD (Ser2) phosphorylation in a dose-dependent manner”. Moreover, the cyclinK degradation entry with cyclinK is on record as “induced the degradation of cyclinK”. Moreover, the GI50 in the data set with HCC1954 cells (setting [3]) was found to be 0.659 µM; in the data set with SK-Br3 cells (setting [4]) it was 0.866 µM. This compound also gave an IC50 against CDK12/CyclinK of 0.582 µM.
The matching figures for `CC(C)n1cnc2c(NCc3ccc(-c4ccncc4)cn3)nc(-c3cccnc3)nc21` [Example 4, N-([3,4′-bipyridin]-6-ylmethyl)-9-isopropyl-2-(pyridin-3-yl)-9H-purin-6-amine]: “inhibited Pol II CTD (Ser2) phosphorylation in a dose-dependent manner”, “induced the degradation of cyclinK”, 0.888 µM, 0.74 µM and 0.627 µM.
As to `Cc1cc(-c2ccc(CNc3nc(-c4cccnc4)nc4c3ncn4C(C)C)nc2)ccn1` [Example 5, 9-isopropyl-N-((2′-methyl-[3,4′-bipyridin]-6-yl)methyl)-2-(pyridin-3-yl)-9H-purin-6-amine], the “Pol II CTD (Ser2) phosphorylation” value in [1] is listed as “inhibited Pol II CTD (Ser2) phosphorylation in a dose-dependent manner”. Moreover, in the data set with cyclinK, the cyclinK degradation result was “induced the degradation of cyclinK”. The 50% inhibitory concentration (IC50) against CDK12/CyclinK came to 0.481 µM.
For the compound `CC(C)n1cnc2c(NCc3ccc(-c4cccnc4)nc3)nc(-c3cncnc3)nc21` [Example 20, N-([2,3′-bipyridin]-5-ylmethyl)-9-isopropyl-2-(pyrimidin-5-yl)-9H-purin-6-amine], the GI50 in the data set on HCC1954 cells (setting [3]) came out at 0.308 µM; with SK-Br3 cells (setting [4]), 0.314 µM. The same compound showed an IC50 at CDK12/CyclinK of 0.051 µM.
The matching figures for `CC(C)n1cnc2c(NCc3ccc(-c4cccnc4)nc3)nc(-c3ccccc3N)nc21` [Example 25, N-([2,3′-bipyridin]-5-ylmethyl)-2-(2-aminophenyl)-9-isopropyl-9H-purin-6-amine]: 2.62 µM, 2.58 µM and 0.619 µM.
The matching figures for `CC(C)n1cnc2c(NCc3ccc(-c4cccnc4)nc3)nc(-c3cccc(N)c3)nc21` [Example 26, N-([2,3′-bipyridin]-5-ylmethyl)-2-(3-aminophenyl)-9-isopropyl-9H-purin-6-amine]: 0.34 µM, 0.615 µM and 0.17 µM.
The matching figures for `CC(C)n1cnc2c(NCc3ccc(-c4cccnc4)nc3)nc(-c3ccc(F)nc3)nc21` [Example 28, N-([2,3′-bipyridin]-5-ylmethyl)-2-(6-fluoropyridin-3-yl)-9-isopropyl-9H-purin-6-amine]: 1.31 µM, 1.75 µM and 0.147 µM.
Turning to `CC(C)n1cnc2c(NCc3ccc(-c4cccnc4)nc3)nc(-c3ccccc3NCCO)nc21` [Example 31, 2-((2-(6-(([2,3′-bipyridin]-5-ylmethyl)amino)-9-isopropyl-9H-purin-2-yl)phenyl)amino)ethan-1-ol], the GI50 worked out at 1.56 µM in the data set with HCC1954 cells (setting [3]) and 2.31 µM in the data set on SK-Br3 cells (setting [4]). At CDK12/CyclinK, this compound came in with an IC50 of 0.799 µM.
For `CC(C)n1cnc2c(NCc3ccc(-c4cccnc4)nc3)nc(-c3ccccc3NCCCO)nc21` [Example 32, 3-((2-(6-(([2,3′-bipyridin]-5-ylmethyl)amino)-9-isopropyl-9H-purin-2-yl)phenyl)amino)propan-1-ol], in that order: 6.09 µM, 11.3 µM and 3.01 µM.
For `CC(C)n1cnc2c(NCc3ccc(-c4cccnc4)nc3)nc(-c3ccc(NCCCO)cc3)nc21` [Example 34, 3-((4-(6-(([2,3′-bipyridin]-5-ylmethyl)amino)-9-isopropyl-9H-purin-2-yl)phenyl)amino)propan-1-ol], the GI50 with HCC1954 cells (setting [3]) was determined as 0.906 µM; in the data set with SK-Br3 cells (setting [4]), 1.09 µM. For the same compound, on CDK12/CyclinK, the IC50 was found to be 0.499 µM.
For `CC(C)n1cnc2c(NCc3ccc(-c4cccnc4)nc3)nc(-c3ccc(NCCO)nc3)nc21` [Example 35, 2-((5-(6-(([2,3′-bipyridin]-5-ylmethyl)amino)-9-isopropyl-9H-purin-2-yl)pyridin-2-yl)amino)ethan-1-ol], the results for the GI50 in the data set with HCC1954 cells (setting [3]) and in the data set with SK-Br3 cells (setting [4]) were 0.173 µM and 0.261 µM, respectively. At CDK12/CyclinK, this compound came in with an IC50 of 0.053 µM.
For `Cc1cc(N)n(-c2nc(NCc3ccc(-c4cccnc4)nc3)c3ncn(C(C)C)c3n2)n1` [Example 40, N-([2,3′-bipyridin]-5-ylmethyl)-2-(5-amino-3-methyl-1H-pyrazol-1-yl)-9-isopropyl-9H-purin-6-amine], in that order: 3.45 µM, 5.18 µM and 2.35 µM.
For `CC(C)n1cnc2c(NCc3ccc(-c4cccnc4)nc3)nc(-n3cc(CO)nn3)nc21` [Example 41, (1-(6-(([2,3′-bipyridin]-5-ylmethyl)amino)-9-isopropyl-9H-purin-2-yl)-1H-1,2,3-triazol-4-yl)methanol], in that order: 10 µM, 13.3 µM and 2.05 µM.
The matching figures for `CC(C)n1cnc2c(NCc3ccc(-c4cccnc4)nc3)nc(-n3cc(CCO)nn3)nc21` [Example 42, 2-(1-(6-(([2,3′-bipyridin]-5-ylmethyl)amino)-9-isopropyl-9H-purin-2-yl)-1H-1,2,3-triazol-4-yl)ethan-1-ol]: 6.5 µM, 8.29 µM and 0.539 µM.
Consider `c1cncc(-c2ccc(CNc3nc(-c4cccnc4)nc4c3ncn4C3CCCC3)cn2)c1` [Example 47, N-([2,3′-bipyridin]-5-ylmethyl)-9-cyclopentyl-2-(pyridin-3-yl)-9H-purin-6-amine], for which the results for the GI50 with HCC1954 cells (setting [3]) and in the data set with SK-Br3 cells (setting [4]) were 2.14 µM and 2.6 µM, respectively. Moreover, on CDK12/CyclinK, the IC50 was 0.293 µM.
As to `CCn1cnc2c(NCc3ccc(-c4ccnc(C)c4)nc3)nc(-c3ccc(N)nc3)nc21` [Example 49, 2-(6-aminopyridin-3-yl)-9-ethyl-N-((2′-methyl-[2,4′-bipyridin]-5-yl)methyl)-9H-purin-6-amine], the activity at 10 µM on CYP3A4 came to 38.9%; on CYP2D6, 89.6%; at CYP2C9, 73%; at CYP2C19, 76.8%; at CYP1A2, 59.3%. Moreover, the “Liver microsomal metabolic stability (% remaining amount) Dog” value in [2] amounted to 45.1%. Also, the “Liver microsomal metabolic stability (% remaining amount) Human” value in [2] turned out to be 32.2%. The “Liver microsomal metabolic stability (% remaining amount) Mouse” value in data set [2] was found to be 35.3%. In addition, the GI50 in the data set on SK-Br3 cells (setting [4]) turned out to be 0.133 µM. At CDK12/CyclinK, this compound registered a half-maximal inhibitory concentration (IC50) of 0.012 µM.
With `CCn1cnc2c(NCc3ccc(-c4ccnc(C)c4)nc3)nc(-c3cnc(N)nc3)nc21` [Example 50, 2-(2-aminopyrimidin-5-yl)-9-ethyl-N-((2′-methyl-[2,4′-bipyridin]-5-yl)methyl)-9H-purin-6-amine], the activity at 10 µM at CYP3A4 amounted to 72.4%; at CYP2D6, 85.7%; on CYP2C9, 82.9%; on CYP2C19, 75.4%; on CYP1A2 it was 74.9%. In data set [2], the “Liver microsomal metabolic stability (% remaining amount) Dog” value turned out to be 53.6%. The “Liver microsomal metabolic stability (% remaining amount) Human” value in [2] is 40.6%. Besides, in data set [2], the “Liver microsomal metabolic stability (% remaining amount) Mouse” value was determined as 45.0%. In addition, at CDK12/CyclinK, it took 0.019 µM to reach half-maximal inhibition (IC50).
`CN(C)C/C=C/C(=O)Nc1ccc(C(=O)N2CCC[C@@H](Nc3ncc(Cl)c(-c4c[nH]c5ccccc45)n3)C2)cc1` [THZ531, reference compound]: the results for the GI50 with HCC1954 cells (setting [3]), in the data set on HCC1954 cells (read-out: HCC1954 GI50) and in the data set on SK-Br3 cells (read-out: SK-Br3 GI50) were 0.214 µM, 0.214 µM and 0.03 µM, respectively. Further, the IC50 against CDK12/CyclinK is 0.05 µM.
